pIC50: −log10 of the molar value. Where two headings read alike, the source gives them in different places.
Tested on: HSV-1
Experiment: Plaque reduction assay, HSV-1 clinical isolates on Vero cells
Type: cell-based
Conditions: Human alphaherpesvirus 1, Vero
Description: Viral isolates were used to infect a sub-confluent monolayer of Vero cells at a concentration of 75 or 50 plaque forming units (PFU) per well for HSV-1 and HSV-2, respectively. […] CMC medium typically used to create a semisolid interface and prevents indiscrimate viral spreading. Other materials (e.g. agar) may also be used to create this interface.
Cells were fixed with 10% formalin and stained with crystal violet before enumeration of the plaques (microscopic observation or use of fluorescent antibodies for detection is also suitable). The data obtained from these experiments were then expressed as percent inhibition of viral infectivity relative to the no drug control.
Definitions of phenotypic drug susceptibility classification as sensitive or resistant were as follows: ACV, <3 μM or >40 μM; PCV, <10 μM or >40 μM; CDV, <24 μM or >30 μM; FOS, <250 μM or >400 μM; and ACV, <6.5 μM or >40 μM; PCV, <38 μM or >40 μM; FOS, <250 μM or >400 μM for HSV-1 and HSV-2, respectively. Any IC50 values falling in between these sensitive and resistant cut-offs were reported as intermediate resistance.
The phenotype (i.e. reactivity to a drug) of the virus was characterised by the plaque reduction assay as described above.

**Q.** `O=C(O)P(=O)(O)O` [Foscarnet, foscarnet] was tested. Which pIC50 (72 h, isolate HPG053, HSV-1 pol L802R + A834S (2405T>G, 2500G>T), also TK R176W, read-out: Drug susceptibility (IC50 value)) did it give?
**A.** 3.20

**Q.** And the pIC50 (isolate HPG002, HSV-1 pol E992K (2974G>A), also TK insert (G) nt 430-436, pol A1169T, read-out: Drug susceptibility (IC50 value))?
**A.** > 4.30

**Q.** And the pIC50 (isolate HPG002, HSV-1 pol E992K (2974G>A), also TK insert (G) nt 430-436, pol A1169T, read-out: Drug susceptibility Foscarnet (FOS))?
**A.** > 3.60

**Q.** And the pIC50 (isolate HPG003, HSV-1 TK Y172S (515A>C), read-out: Drug susceptibility (IC50 value))?
**A.** 4.10

**Q.** And the pIC50 (isolate HPG003, HSV-1 TK Y172S (515A>C), read-out: Drug susceptibility Foscarnet (FOS))?
**A.** > 3.60

**Q.** And the pIC50 (isolate HPG005, HSV-1 TK A37V (110C>T), read-out: Drug susceptibility (IC50 value))?
**A.** 4.43

**Q.** And the pIC50 (isolate HPG005, HSV-1 TK A37V (110C>T), read-out: Drug susceptibility Foscarnet (FOS))?
**A.** > 3.60

**Q.** What about the pIC50 (isolate HPG008, HSV-1 TK V204G (611T>G), read-out: Drug susceptibility (IC50 value)) of the same molecule?
**A.** 4.23

**Q.** And the pIC50 (isolate HPG008, HSV-1 TK V204G (611T>G), read-out: Drug susceptibility Foscarnet (FOS))?
**A.** > 3.60

**Q.** And the pIC50 (isolate HPG009, HSV-1 pol E992K (2974G>A), also pol A1169T, read-out: Drug susceptibility (IC50 value))?
**A.** 4.11

**Q.** And the pIC50 (isolate HPG009, HSV-1 pol E992K (2974G>A), also pol A1169T, read-out: Drug susceptibility Foscarnet (FOS))?
**A.** > 3.60

**Q.** What about the pIC50 (isolate HPG010, HSV-1 TK Q125* (373C>T), read-out: Drug susceptibility (IC50 value)) of the same molecule?
**A.** 4.33

**Q.** What about the pIC50 (isolate HPG010, HSV-1 TK Q125* (373C>T), read-out: Drug susceptibility Foscarnet (FOS)) of the same molecule?
**A.** > 3.60

**Q.** What about the pIC50 (isolate HPG011, HSV-1 TK Q125* (373C>T), read-out: Drug susceptibility (IC50 value)) of the same molecule?
**A.** 4.25

**Q.** And the pIC50 (isolate HPG011, HSV-1 TK Q125* (373C>T), read-out: Drug susceptibility Foscarnet (FOS))?
**A.** > 3.60

**Q.** What about the pIC50 (isolate HPG013, HSV-1 TK M121I (363G>A), read-out: Drug susceptibility (IC50 value)) of the same molecule?
**A.** 4.11

**Q.** What about the pIC50 (isolate HPG013, HSV-1 TK M121I (363G>A), read-out: Drug susceptibility Foscarnet (FOS)) of the same molecule?
**A.** > 3.60

**Q.** And the pIC50 (isolate HPG013, HSV-1 pol D83A (248A>C), also TK M121I, pol A1169T, read-out: Drug susceptibility (IC50 value))?
**A.** 4.11

**Q.** What about the pIC50 (isolate HPG013, HSV-1 pol D83A (248A>C), also TK M121I, pol A1169T, read-out: Drug susceptibility Foscarnet (FOS)) of the same molecule?
**A.** > 3.60

**Q.** And the pIC50 (isolate HPG014, HSV-1 pol A1115T (3343G>A), read-out: Drug susceptibility (IC50 value))?
**A.** 3.85

**Q.** And the pIC50 (isolate HPG014, HSV-1 pol A1115T (3343G>A), read-out: Drug susceptibility Foscarnet (FOS))?
**A.** > 3.60

**Q.** What about the pIC50 (isolate HPG014, HSV-1 pol R993C (2977C>T), read-out: Drug susceptibility (IC50 value)) of the same molecule?
**A.** 3.85

**Q.** And the pIC50 (isolate HPG014, HSV-1 pol R993C (2977C>T), read-out: Drug susceptibility Foscarnet (FOS))?
**A.** > 3.60

**Q.** What about the pIC50 (isolate HPG014, HSV-1 pol T54A (160A>G), read-out: Drug susceptibility (IC50 value)) of the same molecule?
**A.** 3.85

**Q.** And the pIC50 (isolate HPG014, HSV-1 pol T54A (160A>G), read-out: Drug susceptibility Foscarnet (FOS))?
**A.** > 3.60

**Q.** What about the pIC50 (isolate HPG015, HSV-1 pol 966stop or F965_I966insF (2892_2893insT to 2895_2896insT), read-out: Drug susceptibility (IC50 value)) of the same molecule?
**A.** 3.79

**Q.** And the pIC50 (isolate HPG015, HSV-1 pol 966stop or F965_I966insF (2892_2893insT to 2895_2896insT), read-out: Drug susceptibility Foscarnet (FOS))?
**A.** > 3.60

**Q.** And the pIC50 (isolate HPG018, HSV-1 TK frameshift (881delC to 885delC), read-out: Drug susceptibility (IC50 value))?
**A.** 4.18

**Q.** And the pIC50 (isolate HPG018, HSV-1 TK frameshift (881delC to 885delC), read-out: Drug susceptibility Foscarnet (FOS))?
**A.** > 3.60

**Q.** What about the pIC50 (isolate HPG018, HSV-1 pol P1199T (3595C>A), also TK deletion (C) nt 881-885, pol A1169T, read-out: Drug susceptibility (IC50 value)) of the same molecule?
**A.** 4.18

**Q.** And the pIC50 (isolate HPG018, HSV-1 pol P1199T (3595C>A), also TK deletion (C) nt 881-885, pol A1169T, read-out: Drug susceptibility Foscarnet (FOS))?
**A.** > 3.60

**Q.** What about the pIC50 (isolate HPG019, HSV-1 pol K750T (2249A>C), also TK deletion (G) nt 430-436, pol A1169T, read-out: Drug susceptibility (IC50 value)) of the same molecule?
**A.** 3.72

**Q.** What about the pIC50 (isolate HPG019, HSV-1 pol K750T (2249A>C), also TK deletion (G) nt 430-436, pol A1169T, read-out: Drug susceptibility Foscarnet (FOS)) of the same molecule?
**A.** > 3.60

**Q.** What about the pIC50 (isolate HPG020, HSV-1 pol S911N (2732G>A), also pol A1169T, read-out: Drug susceptibility (IC50 value)) of the same molecule?
**A.** 4.00

**Q.** What about the pIC50 (isolate HPG020, HSV-1 pol S911N (2732G>A), also pol A1169T, read-out: Drug susceptibility Foscarnet (FOS)) of the same molecule?
**A.** > 3.60

**Q.** And the pIC50 (isolate HPG021, HSV-1 pol R681Q (2042G>A), also TK deletion (G) nt 430-436, read-out: Drug susceptibility (IC50 value))?
**A.** 3.81

**Q.** What about the pIC50 (isolate HPG021, HSV-1 pol R681Q (2042G>A), also TK deletion (G) nt 430-436, read-out: Drug susceptibility Foscarnet (FOS)) of the same molecule?
**A.** > 3.60

**Q.** And the pIC50 (isolate HPG021, HSV-1 pol T839A (2515A>G), also TK deletion (G) nt 430-436, read-out: Drug susceptibility (IC50 value))?
**A.** 3.81

**Q.** What about the pIC50 (isolate HPG021, HSV-1 pol T839A (2515A>G), also TK deletion (G) nt 430-436, read-out: Drug susceptibility Foscarnet (FOS)) of the same molecule?
**A.** > 3.60

**Q.** And the pIC50 (isolate HPG025, HSV-1 pol E850Q (2548G>C), also TK R216C, read-out: Drug susceptibility (IC50 value))?
**A.** 4.00

**Q.** What about the pIC50 (isolate HPG025, HSV-1 pol E850Q (2548G>C), also TK R216C, read-out: Drug susceptibility Foscarnet (FOS)) of the same molecule?
**A.** > 3.60

**Q.** What about the pIC50 (isolate HPG026, HSV-1 pol E850Q (2548G>C), also TK R216C, pol A1169T, read-out: Drug susceptibility (IC50 value)) of the same molecule?
**A.** 4.17

**Q.** And the pIC50 (isolate HPG026, HSV-1 pol E850Q (2548G>C), also TK R216C, pol A1169T, read-out: Drug susceptibility Foscarnet (FOS))?
**A.** > 3.60

**Q.** And the pIC50 (isolate HPG027, HSV-1 TK V204G (611T>G), also pol S914L, A1169AT, read-out: Drug susceptibility (IC50 value))?
**A.** 3.67

**Q.** And the pIC50 (isolate HPG027, HSV-1 TK V204G (611T>G), also pol S914L, A1169AT, read-out: Drug susceptibility Foscarnet (FOS))?
**A.** > 3.60

**Q.** What about the pIC50 (isolate HPG027, HSV-1 pol S914L (2741C>T), also TK V204G, pol A1169T, read-out: Drug susceptibility (IC50 value)) of the same molecule?
**A.** 3.67

**Q.** And the pIC50 (isolate HPG027, HSV-1 pol S914L (2741C>T), also TK V204G, pol A1169T, read-out: Drug susceptibility Foscarnet (FOS))?
**A.** > 3.60

**Q.** What about the pIC50 (isolate HPG029, HSV-1 TK Y172S (515A>C), read-out: Drug susceptibility (IC50 value)) of the same molecule?
**A.** 3.96

**Q.** What about the pIC50 (isolate HPG029, HSV-1 TK Y172S (515A>C), read-out: Drug susceptibility Foscarnet (FOS)) of the same molecule?
**A.** > 3.60

**Q.** What about the pIC50 (isolate HPG031, HSV-1 pol E1120A (3359A>C), also a TK resistance mutation (footnote e), read-out: Drug susceptibility (IC50 value)) of the same molecule?
**A.** 3.96

**Q.** What about the pIC50 (isolate HPG031, HSV-1 pol E1120A (3359A>C), also a TK resistance mutation (footnote e), read-out: Drug susceptibility Foscarnet (FOS)) of the same molecule?
**A.** > 3.60

**Q.** What about the pIC50 (isolate HPG031, HSV-1 pol G139R (415G>C or 415G>A), also a TK resistance mutation (footnote e), read-out: Drug susceptibility (IC50 value)) of the same molecule?
**A.** 3.96

**Q.** And the pIC50 (isolate HPG031, HSV-1 pol G139R (415G>C or 415G>A), also a TK resistance mutation (footnote e), read-out: Drug susceptibility Foscarnet (FOS))?
**A.** > 3.60

**Q.** And the pIC50 (isolate HPG032, HSV-1 TK 183* (437_438insA), read-out: Drug susceptibility (IC50 value))?
**A.** 4.00

**Q.** And the pIC50 (isolate HPG032, HSV-1 TK 183* (437_438insA), read-out: Drug susceptibility Foscarnet (FOS))?
**A.** > 3.60

From US12281363B2, “Methods for detecting antiviral-drug resistant virus” (Secretary of State for Health and Social Care, priority 2018, dated 2025)
